Laboratory results taken from patent publication US9682985B2, “(Indazol-4-yl) hexahydropyrrolopyrrolones and methods of use” (AbbVie Inc., priority 2015, dated 2017).

Tests used:
[1] = target: T1, hERG channel (Kv11.1) (Homo sapiens, UniProt Q12809); test: hERG QPatch screening protocol (hERG current block); type: cell-based; details: HEK-293 cells stably transfected with hERG; tail current; room temperature
T1 construct: W. January (Wisconsin Alumni Research Foundation); host or cells: HEK-293
Description: hERG QPatch Screening Protocol
Solutions and Compound Plates:
The bath solution contained (in mM): 140 NaCl, 5 KCl, 1 MgCl2, 2 CaCl2, 5 glucose, 20 HEPES, pH=7.4. The internal solution contained (in mM): 125 K-aspartate, 20 KCl, 10 EGTA, 5 MgATP, 1 MgCl2, 5 HEPES, pH=7.3.
Compound plates were prepared with an acoustic liquid handler (Echo® 550, Labcyte), using 384-well source plates and 96-well destination plates. Compounds were delivered to the destination plates as 300 nL spots in half-log increments (1, 3, 10 and 30 mM), dissolved in dimethyl sulfoxide. Plates were solvated with bath solution (300 μL) to final concentrations (1, 3, 10 and 30 μM; 0.1% dimethyl sulfoxide) and added to the QPatch workstation.
Cells and Cell Preparation:
Human embryonic kidney (HEK-293) cells, stably transfected with the hERG channel, were obtained from Dr. C. W. January (Wisconsin Alumni Research Foundation). Cells were initially maintained at 37° C. (5% CO2 atmosphere) in MEM supplemented media. Cells were cryo-preserved in 10% dimethyl sulfoxide, 90% fetal bovine serum at 10 M cells/mL. For electrophysiological studies, cells were thawed, resuspended in media at 1.0-1.5 M cells/mL and placed on the QPatch workstation.
QPatch Electrophysiology Workstation and Experimental Protocol:
Currents were recorded using QPatch HT (Sophion), an automated planar patch-clamp system. The QPatch uses forty-eight amplifiers and a 48-chamber QPlate positioned directly on top of the headstage. To obtain high resistant seals, cells are added to each chamber and allowed to settle for 10 seconds. Negative pressure is then applied to promote cell delivery to the patch chip openings on the chamber bottom. After formation of GΩ seals, negative pressure ramps are applied to obtain intracellular access. Access resistance was initially optimized by additional pressure ramps to assure the intracellular access was adequate for voltage clamp experiments (targeted access resistance <10 MΩ). Whole-cell compensation and series resistance compensation were used at 60% (both predicted and corrected). Experiments using QPatch were conducted at room temperature.
A single application of each concentration was applied to cells. During a five-minute wash-in period, a four-second depolarizing pulse to +20 mV, followed by a five-second repolarizing pulse to −50 mV was applied once every 15 seconds from a holding potential of −80 mV. Cells were exposed to four ascending concentrations of drug in half-log intervals.
Evaluation of hERG Current Block:
hERG tail current was measured as the difference in amplitude between a […] and the end of a five-second test pulse to −50 mV, preceded by a four-second pulse to +20 mV. The hERG IC50 values for compounds were determined from tail current analysis. The IC50 was calculated with a logistic fitting routine using the following equation: y=[(A1−A2)/(1+(x/IC50))^p]A2, where A1=initial×value, A2=final×value and p=power.

[2] = target: T2, recombinant human Nav1.7 (Homo sapiens, UniProt Q15858); test: FRET-based membrane potential assay, Nav1.7; type: cell-based; details: HEK293 cells expressing recombinant human Nav1.7; veratridine + scorpion venom depolarization
T2 construct: expressed in transfected cells; host or cells: HEK293

[3] = target: T3, recombinant human Nav1.8 (Homo sapiens, UniProt Q9Y5Y9); test: FRET-based membrane potential assay, Nav1.8; type: cell-based; details: HEK293 cells expressing recombinant human Nav1.8; veratridine + scorpion venom depolarization
T3 construct: host or cells: HEK293

[4] = system: MIA-induced osteoarthritic pain in rats; test: Osteoarthritic (OA) pain induced by sodium monoiodoacetate (MIA), hind limb grip force; type: in vivo; details: rat MIA-OA, 20 days after MIA
Description: Osteoarthritic (OA) Pain Induced by Sodium Monoiodoacetate (MIA)
Pain behavior was assessed by measurement of hind limb grip force (GF) in adult osteoarthritic rats. Male Sprague Dawley rats, obtained from Charles River Laboratories, (Wilmington, Mass.), weighing 150-175 g, were injected in the unilateral knee join with a single intra-articular injection of sodium monoiodoacetate (MIA, 3 mg/rat). All rats were tested at 20 days following MIA injection. A behavioral measure of activity-induced pain was carried out. Measurements of the peak hind limb grip force were conducted by recording the maximum compressive force (CFmax), in grams of force, exerted on a hind limb strain gauge setup, in a commercially available grip force measurement system (Columbus Instruments, Columbus, Ohio).
During testing, each rat was gently restrained by grasping it around its rib cage and then allowed to grasp the wire mesh frame attached to the strain gauge. The experimenter then moved the animal in a rostral-to-caudal direction until the grip was broken. Each rat was sequentially tested twice at an approximately 2-3 minute interval to obtain a raw mean grip force (CFmax). This raw mean grip force data was in turn converted to a maximum hindlimb cumulative compressive force (CFmax), as the grams of force/kg of body weight, for each animal.
For evaluating the compound effects, the hind limb grip force was conducted 20 days following the intra-articular injection of MIA. A group of age-matched naïve (not injected with MIA) animals was added as a comparator to the drug-dosed groups. The vehicle control response for each group of MIA-treated animals was defined as the 0% response (0% effect), whereas the naïve control group was defined as the normal response and as 100% effect. The % effect for each dose group was expressed as % return of response to normalcy, compared to the naïve group. A percent maximal possible effect (% MPE) of testing compound was calculated according to the formula: (Treatment CFmax Vehicle CFmax)/Vehicle CFmax]×100). Higher % effect numbers indicate increased relief from the pain in the model, with 100% indicating a return to the level of response seen in normal (non-osteoarthritic) animals. All experiments evaluating drug effects in this model were conducted in a randomized blinded fashion.
The animals were housed in Association for Assessment and Accreditation of Laboratory Animal Care (AAALAC) approved facilities at AbbVie Inc. in a temperature-regulated environment under a controlled 12-hour light-dark cycle, with lights on at 6:00 a.m. Food and water were available ad libitum at all times except during testing. All testing was done following procedures outlined in protocols approved by AbbVie Inc.'s Institutional Animal Care and Use Committee.

T1 sequence (Q12809 whole entry): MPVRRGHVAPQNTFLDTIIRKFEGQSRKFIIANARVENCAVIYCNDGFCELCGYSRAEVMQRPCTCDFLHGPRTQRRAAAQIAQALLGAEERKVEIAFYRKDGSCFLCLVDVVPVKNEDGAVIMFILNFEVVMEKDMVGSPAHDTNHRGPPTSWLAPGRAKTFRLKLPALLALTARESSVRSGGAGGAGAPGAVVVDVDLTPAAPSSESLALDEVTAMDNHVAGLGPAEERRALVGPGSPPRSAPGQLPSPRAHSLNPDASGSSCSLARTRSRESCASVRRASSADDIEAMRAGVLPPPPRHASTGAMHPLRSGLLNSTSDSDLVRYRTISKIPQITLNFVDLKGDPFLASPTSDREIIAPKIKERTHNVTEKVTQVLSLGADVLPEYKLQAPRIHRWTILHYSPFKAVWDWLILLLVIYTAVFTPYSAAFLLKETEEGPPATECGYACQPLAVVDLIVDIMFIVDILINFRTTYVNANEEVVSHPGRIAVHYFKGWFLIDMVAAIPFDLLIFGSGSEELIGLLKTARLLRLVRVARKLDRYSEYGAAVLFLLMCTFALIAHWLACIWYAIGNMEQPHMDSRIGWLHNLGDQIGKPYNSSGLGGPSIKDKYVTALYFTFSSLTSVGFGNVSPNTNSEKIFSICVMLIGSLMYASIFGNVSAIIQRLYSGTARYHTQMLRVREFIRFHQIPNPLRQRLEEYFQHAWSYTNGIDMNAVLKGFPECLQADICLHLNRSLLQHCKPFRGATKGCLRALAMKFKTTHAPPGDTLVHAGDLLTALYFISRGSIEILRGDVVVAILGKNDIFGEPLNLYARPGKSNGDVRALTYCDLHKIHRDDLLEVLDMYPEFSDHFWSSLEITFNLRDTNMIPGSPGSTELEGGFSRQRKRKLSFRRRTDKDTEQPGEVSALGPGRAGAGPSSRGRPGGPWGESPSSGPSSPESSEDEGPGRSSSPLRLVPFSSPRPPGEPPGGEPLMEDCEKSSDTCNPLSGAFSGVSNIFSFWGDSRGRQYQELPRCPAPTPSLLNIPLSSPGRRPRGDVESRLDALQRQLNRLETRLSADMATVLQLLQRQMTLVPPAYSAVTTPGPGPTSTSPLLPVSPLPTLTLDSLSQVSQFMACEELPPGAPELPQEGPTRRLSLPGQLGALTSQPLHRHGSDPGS
T3 sequence (Q9Y5Y9 whole entry): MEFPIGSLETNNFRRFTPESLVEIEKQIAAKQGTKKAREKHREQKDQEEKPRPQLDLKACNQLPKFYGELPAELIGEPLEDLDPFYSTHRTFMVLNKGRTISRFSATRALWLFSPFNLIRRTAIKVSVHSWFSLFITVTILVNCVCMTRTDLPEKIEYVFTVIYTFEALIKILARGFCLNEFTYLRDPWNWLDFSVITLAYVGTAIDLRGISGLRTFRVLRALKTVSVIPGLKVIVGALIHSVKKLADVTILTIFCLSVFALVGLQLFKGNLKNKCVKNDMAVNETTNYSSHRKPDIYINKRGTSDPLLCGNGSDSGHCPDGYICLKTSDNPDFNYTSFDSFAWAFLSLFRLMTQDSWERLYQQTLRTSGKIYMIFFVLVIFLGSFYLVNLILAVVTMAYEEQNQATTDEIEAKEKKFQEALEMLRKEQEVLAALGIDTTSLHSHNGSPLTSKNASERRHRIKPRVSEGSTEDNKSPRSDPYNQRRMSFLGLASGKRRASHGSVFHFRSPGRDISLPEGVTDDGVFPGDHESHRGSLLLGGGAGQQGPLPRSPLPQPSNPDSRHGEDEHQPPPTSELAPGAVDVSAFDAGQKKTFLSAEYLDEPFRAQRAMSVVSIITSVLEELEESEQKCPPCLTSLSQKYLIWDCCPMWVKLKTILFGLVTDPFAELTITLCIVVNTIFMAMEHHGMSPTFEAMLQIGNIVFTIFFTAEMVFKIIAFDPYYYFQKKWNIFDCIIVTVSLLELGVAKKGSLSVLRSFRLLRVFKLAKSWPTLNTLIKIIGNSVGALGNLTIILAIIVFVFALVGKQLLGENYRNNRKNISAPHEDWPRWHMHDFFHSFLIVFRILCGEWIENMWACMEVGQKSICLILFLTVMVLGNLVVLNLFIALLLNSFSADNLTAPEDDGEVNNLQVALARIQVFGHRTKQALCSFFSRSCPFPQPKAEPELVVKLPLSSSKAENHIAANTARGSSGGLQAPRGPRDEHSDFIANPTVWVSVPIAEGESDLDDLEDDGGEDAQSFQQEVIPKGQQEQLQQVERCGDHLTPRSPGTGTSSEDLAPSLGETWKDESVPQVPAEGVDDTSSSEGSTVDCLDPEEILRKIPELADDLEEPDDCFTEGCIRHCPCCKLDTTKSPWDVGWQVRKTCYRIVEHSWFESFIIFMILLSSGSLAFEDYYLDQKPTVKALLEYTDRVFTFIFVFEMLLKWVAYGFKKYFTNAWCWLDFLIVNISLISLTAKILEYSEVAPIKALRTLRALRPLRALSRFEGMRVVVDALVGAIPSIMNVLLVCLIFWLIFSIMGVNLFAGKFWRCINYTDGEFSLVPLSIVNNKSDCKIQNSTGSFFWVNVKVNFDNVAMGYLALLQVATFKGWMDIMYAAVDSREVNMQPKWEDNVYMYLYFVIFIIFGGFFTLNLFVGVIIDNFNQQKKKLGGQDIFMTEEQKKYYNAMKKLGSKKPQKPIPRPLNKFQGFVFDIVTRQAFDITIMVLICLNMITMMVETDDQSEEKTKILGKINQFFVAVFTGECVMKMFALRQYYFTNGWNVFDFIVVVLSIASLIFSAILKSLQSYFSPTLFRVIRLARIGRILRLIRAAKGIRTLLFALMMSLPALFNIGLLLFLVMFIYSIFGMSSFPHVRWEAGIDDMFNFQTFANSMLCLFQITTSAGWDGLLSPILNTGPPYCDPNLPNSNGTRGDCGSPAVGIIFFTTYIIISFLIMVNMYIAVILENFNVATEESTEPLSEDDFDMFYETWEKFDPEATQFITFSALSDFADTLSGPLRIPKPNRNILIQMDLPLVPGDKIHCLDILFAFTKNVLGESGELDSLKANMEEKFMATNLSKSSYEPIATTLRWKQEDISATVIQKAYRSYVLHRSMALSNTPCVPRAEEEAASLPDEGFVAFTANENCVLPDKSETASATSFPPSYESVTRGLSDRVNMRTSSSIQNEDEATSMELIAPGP
T2 sequence (Q15858 whole entry): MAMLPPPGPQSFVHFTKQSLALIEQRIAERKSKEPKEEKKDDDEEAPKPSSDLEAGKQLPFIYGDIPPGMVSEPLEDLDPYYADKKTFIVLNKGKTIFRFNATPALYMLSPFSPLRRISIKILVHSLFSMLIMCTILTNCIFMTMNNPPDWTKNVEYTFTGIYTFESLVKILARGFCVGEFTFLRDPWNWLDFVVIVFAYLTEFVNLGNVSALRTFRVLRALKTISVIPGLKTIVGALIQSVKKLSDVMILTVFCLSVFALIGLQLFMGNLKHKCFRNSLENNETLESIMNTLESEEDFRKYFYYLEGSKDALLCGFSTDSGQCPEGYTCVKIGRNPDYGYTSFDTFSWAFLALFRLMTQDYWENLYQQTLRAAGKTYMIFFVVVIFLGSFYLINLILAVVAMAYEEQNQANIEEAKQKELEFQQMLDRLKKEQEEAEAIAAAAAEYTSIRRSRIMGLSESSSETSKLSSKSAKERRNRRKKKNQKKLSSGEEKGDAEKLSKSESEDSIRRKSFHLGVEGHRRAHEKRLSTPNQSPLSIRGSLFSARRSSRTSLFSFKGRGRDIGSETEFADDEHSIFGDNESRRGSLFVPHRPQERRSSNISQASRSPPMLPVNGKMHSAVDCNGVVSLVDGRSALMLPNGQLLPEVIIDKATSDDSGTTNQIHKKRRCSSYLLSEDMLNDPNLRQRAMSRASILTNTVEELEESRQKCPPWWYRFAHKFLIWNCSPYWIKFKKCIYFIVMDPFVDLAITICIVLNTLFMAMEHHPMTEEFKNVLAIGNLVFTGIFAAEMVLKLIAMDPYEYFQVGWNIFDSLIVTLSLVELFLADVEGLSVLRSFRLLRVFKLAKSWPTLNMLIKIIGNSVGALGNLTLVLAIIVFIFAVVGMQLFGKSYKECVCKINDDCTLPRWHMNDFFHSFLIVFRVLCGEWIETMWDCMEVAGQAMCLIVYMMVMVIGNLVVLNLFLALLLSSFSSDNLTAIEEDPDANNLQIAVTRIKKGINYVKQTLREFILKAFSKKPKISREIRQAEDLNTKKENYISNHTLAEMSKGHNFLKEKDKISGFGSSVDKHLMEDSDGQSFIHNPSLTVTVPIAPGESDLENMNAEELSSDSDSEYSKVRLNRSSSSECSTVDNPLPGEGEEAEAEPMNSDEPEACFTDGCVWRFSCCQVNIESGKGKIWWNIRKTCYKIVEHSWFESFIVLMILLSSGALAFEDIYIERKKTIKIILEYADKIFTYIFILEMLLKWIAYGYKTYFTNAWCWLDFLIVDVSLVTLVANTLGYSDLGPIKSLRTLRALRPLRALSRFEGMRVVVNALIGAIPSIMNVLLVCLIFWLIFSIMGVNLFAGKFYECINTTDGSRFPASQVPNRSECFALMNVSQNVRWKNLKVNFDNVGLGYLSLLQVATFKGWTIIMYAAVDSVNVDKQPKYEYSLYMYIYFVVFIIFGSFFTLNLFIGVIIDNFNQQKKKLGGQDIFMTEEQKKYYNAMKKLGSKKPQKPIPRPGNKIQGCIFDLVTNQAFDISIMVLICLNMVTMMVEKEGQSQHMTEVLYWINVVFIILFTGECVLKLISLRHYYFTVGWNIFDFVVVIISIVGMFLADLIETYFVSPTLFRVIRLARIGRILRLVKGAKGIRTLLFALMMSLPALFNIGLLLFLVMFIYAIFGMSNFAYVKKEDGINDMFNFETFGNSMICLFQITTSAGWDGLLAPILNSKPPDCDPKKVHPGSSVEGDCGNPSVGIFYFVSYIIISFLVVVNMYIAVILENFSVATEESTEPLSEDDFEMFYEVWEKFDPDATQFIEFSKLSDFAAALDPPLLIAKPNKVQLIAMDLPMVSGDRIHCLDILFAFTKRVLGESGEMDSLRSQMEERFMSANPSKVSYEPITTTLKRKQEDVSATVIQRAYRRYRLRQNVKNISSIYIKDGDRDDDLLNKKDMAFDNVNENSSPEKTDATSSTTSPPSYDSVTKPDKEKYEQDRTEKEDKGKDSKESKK

SMILES: O=C1[C@H]2[C@H](CCN2C(=O)[C@@H]2CCOC2)CN1c1cccc2c1cnn2-c1ccccc1F (mixture of isomers) [Example 3, (3aR*,6aR*)-5-[1-(2-fluorophenyl)-1H-indazol-4-yl]-1-[(3R)-tetrahydrofuran-3-ylcarbonyl]hexahydropyrrolo[3,4-b]pyrrol-6(1H)-one]
- IC50 [1]: > 30 µM
- IC50 [2]: 1.93 µM
- IC50 [3]: 5.4 µM

SMILES: C[C@@H](O)CC(=O)N1CC[C@@H]2CN(c3cccc4c3cnn4-c3ccccc3F)C(=O)[C@@H]21 (mixture of isomers) [Example 7, (3aR*,6aR*)-5-[1-(2-fluorophenyl)-1H-indazol-4-yl]-1-[(3R)-3-hydroxybutanoyl]hexahydropyrrolo[3,4-b]pyrrol-6(1H)-one]
- IC50 [1]: > 30 µM
- IC50 [2]: 3.19 µM
- IC50 [3]: 3.08 µM

SMILES: CC(=O)N1CC[C@@H]2CN(c3cccc4c3cnn4-c3ccccc3F)C(=O)[C@@H]21 (relative stereo) [Example 6, rel-(3aR,6aR)-1-acetyl-5-[1-(2-fluorophenyl)-1H-indazol-4-yl]hexahydropyrrolo[3,4-b]pyrrol-6(1H)-one]
- IC50 [2]: 13.1 µM
- IC50 [3]: 14.7 µM

SMILES: CC(C)(O)CC(=O)N1CC[C@@H]2CN(c3cccc4c3cnn4-c3ccccc3F)C(=O)[C@@H]21 (single isomer, unassigned) [Example 1]
- IC50 [1]: > 30 µM
- OA MPE ([4]; OA dose 30 mg/kg): 70%
- IC50 [3]: 2.79 µM

SMILES: CC(C)(O)CC(=O)N1CC[C@H]2CN(c3cccc4c3cnn4-c3ccccc3F)C(=O)[C@H]21 (single isomer, unassigned) [Example 2]
- IC50 [1]: > 30 µM
- OA MPE ([4]; OA dose 30 mg/kg): 62%
- IC50 [3]: 2.38 µM

SMILES: CC(C)S(=O)(=O)N1C[C@@H]2CN(c3cccc4c3cnn4-c3ccccc3F)C(=O)[C@@H]2C1 [Example 24, (3aS,6aS)-2-[1-(2-fluorophenyl)-1H-indazol-4-yl]-5-(isopropylsulfonyl)hexahydropyrrolo[3,4-c]pyrrol-1 (2H)-one]
- IC50 [1]: 17 µM
- OA MPE ([4]; OA dose 10 mg/kg): 66%
- IC50 [2]: 1.98 µM
- IC50 [3]: 0.59 µM

SMILES: O=C1[C@@H]2CN(S(=O)(=O)c3ccccc3)C[C@@H]2CN1c1cccc2c1cnn2-c1ccccc1F [Example 29, (3aS,6aS)-2-[1-(2-fluorophenyl)-1H-indazol-4-yl]-5-(phenylsulfonyl)hexahydropyrrolo[3,4-c]pyrrol-1(2H)-one]
- IC50 [1]: 26.5 µM
- IC50 [2]: 2.88 µM

SMILES: O=C(c1coc(CN2CCCC2)n1)N1C[C@@H]2CN(c3cccc4c3cnn4-c3ccccc3F)C(=O)[C@@H]2C1 [Example 31, (3aR,6aS)-2-[1-(2-fluorophenyl)-1H-indazol-4-yl]-5-{[2-(pyrrolidin-1-ylmethyl)-1,3-oxazol-4-yl]carbonyl}hexahydropyrrolo[3,4-c]pyrrol-1(2H)-one]
- IC50 [1]: 13.5 µM
- IC50 [2]: 0.463 µM

SMILES: O=C(C1CCOC1)N1C[C@@H]2CN(c3cccc4c3cnn4-c3ccccc3F)C(=O)[C@@H]2C1 (stereo partly drawn) [Example 32, (3aR,6aS)-2-[1-(2-fluorophenyl)-1H-indazol-4-yl]-5-(tetrahydrofuran-3-ylcarbonyl)hexahydropyrrolo[3,4-c]pyrrol-1(2H)-one]
- IC50 [1]: 7.43 µM
- OA MPE ([4]; OA dose 10 mg/kg): 9%
- IC50 [2]: 1.69 µM

SMILES: O=C(C1CC(Cl)C1)N1C[C@H]2CN(c3cccc4c3cnn4-c3ccccc3F)C(=O)[C@H]2C1 (stereo partly drawn) [Example 43, (3aS,6aR)-5-[(3-chlorocyclobutyl)carbonyl]-2-[1-(2-fluorophenyl)-1H-indazol-4-yl]hexahydropyrrolo[3,4-c]pyrrol-1(2H)-one]
- IC50 [1]: > 30 µM
- IC50 [2]: 3.03 µM

SMILES: NC(=O)CC(=O)N1C[C@H]2CN(c3cccc4c3cnn4-c3ccccc3F)C(=O)[C@H]2C1 [Example 44, 3-[(3aR,6aS)-5-[1-(2-fluorophenyl)-1H-indazol-4-yl]-4-oxohexahydropyrrolo[3,4-c]pyrrol-2(1H)-yl]-3-oxopropanamide]
- IC50 [2]: > 20 µM
- IC50 [3]: > 20 µM

SMILES: O=C(CCO)N1C[C@H]2CN(c3cccc4c3cnn4-c3ccccc3F)C(=O)[C@H]2C1 [Example 45, (3aS,6aR)-2-[1-(2-fluorophenyl)-1H-indazol-4-yl]-5-(3-hydroxypropanoyl)hexahydropyrrolo[3,4-c]pyrrol-1(2H)-one]
- IC50 [2]: > 20 µM
- IC50 [3]: > 20 µM

SMILES: CC(=O)N1C[C@H]2CN(c3cccc4c3cnn4-c3ccccc3F)C(=O)[C@H]2C1 [Example 46, (3aS,6aR)-5-acetyl-2-[1-(2-fluorophenyl)-1H-indazol-4-yl]hexahydropyrrolo[3,4-c]pyrrol-1(2H)-one]
- IC50 [1]: > 30 µM
- IC50 [2]: 3.56 µM

SMILES: CC(C)(O)C(=O)N1CC[C@H]2CN(c3cccc4c3cnn4-c3ccccc3F)C(=O)[C@H]21 [Example 49, (3aS,6aS)-5-[1-(2-fluorophenyl)-1H-indazol-4-yl]-1-(2-hydroxy-2-methylpropanoyl)hexahydropyrrolo[3,4-b]pyrrol-6(1H)-one]
- IC50 [2]: 0.397 µM
- IC50 [3]: 4.03 µM
